According to patent publication US20060051295A1, “Estrogen receptor interaction with a transcription factor” (priority 2002, published 2006):

Key:
[1] = system: ERα and c-Rel; assay: NF-κB-responsive reporters in COS cells transfected with ERα and c-Rel; type: cell-based, human; conditions: COS cells (B), ERα + cRel transfected
From the text: This example describes an assay, based on the E-selectin or VCAM promoter in combination with ERα in the T24/ECV cell line. Note that for the ER/NF-κB transrepression assay the ECV304 cell line was used, which was believed to be the only endothelial cell line available that was suitable for producing stable ERα expressing clones. At a later stage ATCC reported that the ECV304 cells were no endothelial cells but, instead, were T24 bladder carcinoma cells. In order to enhance the cytokine induction and amount of repression by estrogens, multiple copies of NF-κB responsive regions of the E-Selectin and VCAM promoters were used to construct new reporters named ELAM1a, ELAM2, ELAM-HMG, VCAM1-2, VCAM2, and VCAM3 (for reporter details see appendix 1).
ECV304-ERα cells stably express ERα and endogenous c-Rel, whereas COS cells were transiently transfected with ERα, and, where indicated, c-Rel. Both cell types were co-transfected with the indicated E-selectin (ELAM) or VCAM promoter derived reporters.
Human osteosarcoma U-2 OS (HTB-96), monkey kidney COS-1 (CRL-1650) and human ECV304 (CRL-1998) cells have been obtained from ATCC (American Type Culture collection). ECV304 cells were sold by ATCC as human endothelial cells, however at a later stage ATCC informed us that this cell line was in fact the human bladder epithelial carcinoma cell line T24. Therefore, these cells are called T24/ECV in this report. ECV304/T24(-ERα), U-2 OS and COS-7 cells were grown in a 1:1 mixture of phenol red free Dulbecco's modified medium (DMEM) and Ham's F12 medium (=M505), supplemented with 10% fetal calf serum (FCS). Experiments were performed in M505+10% FCTS (fetal calf serum treated with dextran-coated charcoal to deplete serum from steroid activity).
The six NF-κB responsive reporters pHGL3-ELAM 1a, pHGL3-ELAM 2, pHGL3-ELAM HMG, pHGL3-VCAM 1-2, pHGL3-VCAM 2 and pHGL3-VCAM 3 (plasmid nr. 1921-1926 respectively) were constructed by ligating annealed primers in the Kpn I and Sac I sites of pHGL3-TATA. The primers were based on the NF-κB-RE sequences in the ELAM and the VCAM promoter (see Appendix 1). Several copies of the NF-κB-RE's were cloned in order the gain a higher absolute luciferase signal. The ELAM HMG construct contains a double repeat, while the other constructs contain three NF-κB -RE's. For primer and reporter sequences, see appendix 1.
(§1) For transient transfections, cells were seeded in 6-well plates (2.10^5 cells/well). After two or three days the cells were transfected with reporter, expression vectors and β-galactosidase control vector. Two different experimental settings were used. For testing transrepression of IL-1β induced promoter activity, cells were transfected with 1 μg reporter construct, 1 μg expression vector (containing either ERα, ERβ or GR), and 0.25 μg of β-galactosidase control plasmid. For testing transrepression in combination with c-Rel or ReLA overexpression, cells were transfected with 1 μg reporter construct, 1 μg expression vector (containing either ERα, ERβ or GR) and 0.1 or 1.0 μg expression vector containing c-Rel or RelA and 0.25 μg of β-galactosidase control vector. Equivalent amounts of DNA were obtained by adding the appropriate expression vector that lacks an insert. Transient transfection was performed using lipofectin reagent (Life Technologies). […] The transfected cells were incubated overnight with test compounds prior to cell lysis. Measurement of luciferase and P-galactosidase activity were performed using respectively the luciferase assay system (Promega) and Galacto-light plus (Tropix) according to the manufacturers' protocols and measured on the Victor 1420 multilabel counter, Wallac.

[2] = system: VCAM gene expression; assay: Rabbit atherogenic diet model, VCAM mRNA in aorta bow (RNase protection)
[3] = system: cRel + ER alpha; assay: Transrepression of c-Rel induced reporters, U-2 OS co-transfected with ERα; type: cell-based, human
Experimental: Next was determined whether transrepression by ER is limited to particular NF-κB types, such as c-Rel or RelA, by overexpression of these NF-κB proteins in U-2 OS cells (Table 2). Again, the promoter-reporter constructs for the E-selectin, ICAM and VCAM genes were used in these experiments. Significant activation of these reporters by overexpression of c-Rel was observed. This activation was strongly and reproducibly transrepressed by both ERα and ERβ (Table 2).
Table 2. Estrogen-dependent transrepression of the promoters from E-selectin, VCAM and ICAM and a synthetic NF-κB responsive reporter, measured as the amount of luciferase activity. Transient (co-)transfections of ERα (or ERβ) and reporter were performed in U-2 OS cells. Reporter activity was induced by cellular exposure to Il-1β or by co-transfection of the NF-κB genes c-Rel or RelA. […] For detailed information on the composition of the reporters used, see appendix 1. The hyphen (-) in the table indicates the test with cells without transfected cDNA and no additives in medium; n.d. means: not determined.
as §1, with “Wallac. Detection of β-galactosidase activity was used as a control for transfection efficiency.” for “Wallac.”

## C[C@]12CC[C@@H]3c4ccc(O)cc4CC[C@H]3[C@@H]1CC[C@@H]2O [Org E2, 17β-estradiol]
[1]
  luciferase activity, ELAM1a reporter: 7390 cps
  luciferase activity, ELAM2 reporter: 6223 cps
  luciferase activity, ELAM-HMG reporter: 61571 cps
  luciferase activity, ELAM− reporter: 90035 cps
  luciferase activity, VCAM1-2 reporter: 9107 cps
  luciferase activity, VCAM2 reporter: 4783 cps
  luciferase activity, VCAM3 reporter: 10781 cps
  luciferase activity, VCAM reporter: 51283 cps
[2]; diet 2 weeks, 4 hours after 3 μg/kg s.c.
  VCAM mRNA level (RNase protection, divided by GAPDH signal): 0.004949
[2]; diet 2 weeks, 12 hours after 3 μg/kg s.c.
  VCAM mRNA level (RNase protection, divided by GAPDH signal): 0.01033
[2]; diet 4 weeks, 4 hours after 3 μg/kg s.c.
  VCAM mRNA level (RNase protection, divided by GAPDH signal): 0.005097
[2]; diet 4 weeks, 12 hours after 3 μg/kg s.c.
  VCAM mRNA level (RNase protection, divided by GAPDH signal): 0.006225
[2]; diet 8 weeks, 4 hours after 3 μg/kg s.c.
  VCAM mRNA level (RNase protection, divided by GAPDH signal): 0.007292
[2]; diet 8 weeks, 12 hours after 3 μg/kg s.c.
  VCAM mRNA level (RNase protection, divided by GAPDH signal): 0.009832
[2]; diet 18 weeks, 4 hours after 3 μg/kg s.c.
  VCAM mRNA level (RNase protection, divided by GAPDH signal): 0.0345
[2]; diet 18 weeks, 12 hours after 3 μg/kg s.c.
  VCAM mRNA level (RNase protection, divided by GAPDH signal): 0.02017
[3]
  luciferase activity, 3*NFkB-reporter: 5140
  luciferase activity, ELAM+ reporter: 3256
  luciferase activity, ELAM− reporter: 569
  luciferase activity, ICAM reporter: 3514
  luciferase activity, VCAM reporter: 259
